Assay results taken from PubChem BioAssay (NCI).
Where “and” joins values, the source holds several entries; their conditions need not be identical. Equal values may be shown once.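 Dose response: 5 concentrations. Exposure: 48 h. Format: 96-well plates. Endpoint: linear interpolation; highest concentration if not reached. At the GI50, growth is halved. Definition used: TGI = concentration required for complete inhibition of growth.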

Assays:
Assay in all cases: DTP human tumour cell line panel, 48 h
EKVX NSCLC = system: EKVX NSCLC
HL-60(TB) leukemia = system: HL-60(TB) leukemia
HOP-62 NSCLC = system: HOP-62 NSCLC
IGROV1 ovarian = system: IGROV1 ovarian
KM12 colon = system: KM12 colon
MDA-MB-435 = system: MDA-MB-435
SK-MEL-2 melanoma = system: SK-MEL-2 melanoma
SK-MEL-5 melanoma = system: SK-MEL-5 melanoma
SNB-19 CNS = system: SNB-19 CNS
SR leukemia = system: SR leukemia

SMILES	TGI (EKVX NSCLC)	TGI (HL-60(TB) leukemia)	TGI (HOP-62 NSCLC)	TGI (IGROV1 ovarian)	TGI (KM12 colon)	TGI (MDA-MB-435)	TGI (SK-MEL-2 melanoma)	TGI (SK-MEL-5 melanoma)	TGI (SNB-19 CNS)	TGI (SR leukemia)	GI50 (EKVX NSCLC)	GI50 (HL-60(TB) leukemia)	GI50 (HOP-62 NSCLC)	GI50 (IGROV1 ovarian)	GI50 (KM12 colon)	GI50 (MDA-MB-435)	GI50 (SK-MEL-2 melanoma)	GI50 (SK-MEL-5 melanoma)	GI50 (SNB-19 CNS)	GI50 (SR leukemia)
O=C1C(c2cnc3ccccc3n2)=C(O)c2ccccc21	> 100 µM	> 88.5 µM	> 100 µM	> 100 µM	> 41.1 µM	> 100 µM	> 100 µM	> 100 µM	> 100 µM	> 100 µM	–	–	–	–	–	–	–	–	–	–
Cc1ccc(-c2nc3nc(-c4ccccc4)nc(N4CCNCC4)c3o2)cc1	3.24 µM	0.463 µM	2.98 µM	1.41 µM	1.36 µM	3.04 µM	3.64 µM	3.04 µM	2.58 µM	0.611 µM	1.74 µM	0.215 µM	1.48 µM	0.577 µM	0.345 µM	1.58 µM	1.86 µM	1.65 µM	1.06 µM	0.223 µM
COC(=N)c1c(N)[n+]([O-])c2ccc(F)cc2[n+]1[O-]	> 100 µM	> 100 µM	> 100 µM	86.5 µM	> 100 µM	> 100 µM	> 100 µM	> 100 µM	> 100 µM	> 100 µM	99.1 µM	> 100 µM	> 100 µM	18.1 µM	> 100 µM	> 100 µM	> 100 µM	52.6 µM	> 100 µM	47.9 µM
O=[N+]([O-])c1ccc(N2CCC(CCCC3CCN(c4ccc([N+](=O)[O-])cc4[N+](=O)[O-])CC3)CC2)c([N+](=O)[O-])c1	34.3 µM	35.9 µM	29.5 µM	25.3 µM	30.7 µM	26.8 µM	32 µM	30.7 µM	34.8 µM	74.7 µM	–	–	–	–	–	–	–	–	–	–
COC(=O)C1=C(C)NC(C)=C(C(=O)OCC(C)C)C1c1ccccc1[N+](=O)[O-] (configuration not stated)	32.7 µM	9.46 µM	18.4 µM	25.9 µM	> 100 µM	17.6 µM	13.6 µM	10.1 µM	64.3 µM	11.3 µM	8.06 µM	2.73 µM	5.24 µM	5.55 µM	2.94 µM	4.25 µM	4 µM	2.72 µM	8.2 µM	2.53 µM
NCCN.O=C([O-])CN1CCOCC1.[OH-].[Pt+4]	> 100 µM	> 100 µM	> 100 µM	> 100 µM	> 100 µM	> 100 µM	> 100 µM	> 100 µM	> 100 µM	> 100 µM	> 100 µM	15.8 µM	> 100 µM	> 100 µM	> 100 µM	> 100 µM	> 100 µM	> 100 µM	> 100 µM	> 100 µM
C=C1CC[C@@H]2[C@](C)(COC(C)=O)[C@H](OC(C)=O)CC[C@@]2(C)[C@@H]1CC(Nc1ccc(S(=O)(=O)Nc2ccc(Cl)nn2)cc1)C1=CCOC1=O (some centres not stated)	17 µM	4.44 µM	2.99 µM	5 µM	3.49 µM	3.17 µM	3.99 µM	3.13 µM	3.91 µM	8.1 µM	4.53 µM	1.32 µM	1.46 µM	2.08 µM	1.7 µM	1.4 µM	1.77 µM	1.6 µM	1.91 µM	1.35 µM
O=c1c(O)c(-c2ccc(O)c(O)c2)oc2cc(O)cc(O)c12	> 100 µM	65.3 µM and 47.8 µM	> 100 µM	> 100 µM	59.3 µM and > 100 µM	> 100 µM	47.3 µM and > 100 µM	44 µM and > 100 µM	> 100 µM	> 100 µM	23.9 µM	10.9 µM	15.6 µM	11.5 µM	9.4 µM	5.08 µM	15.1 µM	9.24 µM	13.1 µM	3.57 µM
CC1=C(CCC(C)NCc2ccc(OCCCN3CCCCC3)cc2)C(C)(C)CCC1 (configuration not stated)	3.94 µM	4.2 µM	3.64 µM	3.89 µM	3.36 µM	0.528 µM	3.08 µM	3.06 µM	4.26 µM	0.608 µM	1.61 µM	2.14 µM	1.84 µM	1.68 µM	1.7 µM	0.216 µM	1.49 µM	1.68 µM	2.01 µM	0.221 µM
Cc1nn(C)c(COc2ccc(N3CCN(S(=O)(=O)N(C)C)CC3)cc2)c1-c1cccc2c(CCCOc3cccc4ccccc34)c(C(=O)O)n(CCN3CCOCC3)c12	15 µM	6.07 µM	14.4 µM	11.7 µM	13 µM	12 µM	4.35 µM	5.96 µM	23.4 µM	11 µM	3.59 µM	2.45 µM	3.03 µM	3.52 µM	3.5 µM	3.4 µM	1.95 µM	2.44 µM	3.63 µM	3.13 µM
Cc1ccc(C(=O)NC2CCC2)cc1-c1ccc(C(=O)NCC2CC2)cc1	> 25 µM	> 25 µM	> 25 µM	> 25 µM	> 25 µM	> 25 µM	> 25 µM	> 25 µM	> 25 µM	> 25 µM	> 25 µM	> 25 µM	> 25 µM	> 25 µM	> 25 µM	> 25 µM	> 25 µM	> 21.5 µM	> 25 µM	> 25 µM
COc1ccc(/C=C(\C(=O)NCc2cccnc2)S(=O)(=O)c2ccccc2)cc1OC	12.2 µM	6.42 µM	11.4 µM	11.3 µM	8.61 µM	10.9 µM	12.7 µM	10.9 µM	13.1 µM	> 100 µM	3.13 µM	2.01 µM	3.51 µM	2.22 µM	2.81 µM	2.74 µM	3.01 µM	2.97 µM	3.69 µM	3.3 µM
COc1ccc(CC(=O)c2ccc(O)cc2O)cc1	> 100 µM	> 100 µM	> 100 µM	> 100 µM	> 100 µM	> 100 µM	> 100 µM	> 100 µM	> 100 µM	> 100 µM	47.7 µM	40.9 µM	> 100 µM	53.4 µM	> 100 µM	> 100 µM	> 100 µM	48.3 µM	> 100 µM	> 100 µM
COC(=O)Nc1nc2ccc(Oc3cccc(NC(=O)Nc4cc(C(F)(F)F)ccc4F)c3)cc2[nH]1	> 25 µM	18.5 µM	> 25 µM	> 25 µM	> 25 µM	18.8 µM	19.5 µM	> 17.4 µM	> 25 µM	> 25 µM	> 19.5 µM	4.98 µM	13.3 µM	12.1 µM	7.57 µM	5.78 µM	5.28 µM	5.97 µM	> 25 µM	10.2 µM
CC[C@H](CO)Nc1nc(NCc2ccccc2)c2ncn(C(C)C)c2n1	44.1 µM	> 79.9 µM	> 94 µM	> 86.2 µM	60.2 µM	> 73.6 µM	44.6 µM	35.5 µM	> 100 µM	> 79.8 µM	–	–	29.4 µM	11.9 µM	10.6 µM	20.1 µM	–	–	26.4 µM	–
O=C1c2ccc3c4c(ccc(c24)C(=O)N1CCCNCc1ccccc1Cl)C(=O)N(CCCNCc1ccccc1Cl)C3=O	1.16 µM	2.11 µM	1.02 µM	1.63 µM	0.637 µM	0.332 µM	1.28 µM	1.02 µM	0.987 µM	6.68 µM	0.481 µM	0.904 µM	0.277 µM	0.275 µM	0.17 µM	0.12 µM	0.415 µM	0.399 µM	0.314 µM	0.151 µM
Cc1nn(-c2ccc(Cl)cc2)c2nc3c(nc12)C(=O)C(=O)c1ccccc1-3	> 100 µM	> 100 µM	30.4 µM	47.3 µM	15.6 µM	> 100 µM	16.2 µM	24.1 µM	8.17 µM	> 100 µM	7.36 µM	4.32 µM	9.71 µM	5.46 µM	3.76 µM	6.31 µM	4.71 µM	4.94 µM	2.48 µM	7.28 µM
C#CCNCCN1C(=O)c2ccc3c4c(ccc(c24)C1=O)C(=O)N(CCNCC#C)C3=O	13.6 µM	25.8 µM	14.9 µM	10.4 µM	11.4 µM	5.85 µM	14.1 µM	6.56 µM	10.6 µM	29.8 µM	5.93 µM	8.35 µM	4.1 µM	2.07 µM	3.35 µM	1.52 µM	6.57 µM	1.65 µM	3.56 µM	4.53 µM
Cc1[nH]c2ccc(F)cc2c1-c1nc2c3cccnc3c3ncccc3c2[nH]1	> 100 µM	–	> 100 µM	> 100 µM	> 100 µM	> 100 µM	> 100 µM	0.516 µM	> 100 µM	> 100 µM	0.278 µM	0.241 µM	0.305 µM	0.374 µM	0.391 µM	0.426 µM	0.51 µM	0.19 µM	0.384 µM	0.134 µM
Cc1nn(-c2ccc([N+](=O)[O-])cc2)c2ncnc(N/N=C/c3ccccc3O)c12	> 100 µM	–	3.29 µM	4.31 µM	> 100 µM	> 100 µM	> 45 µM	2.25 µM	8.65 µM	–	2.41 µM	0.31 µM	0.397 µM	0.462 µM	0.379 µM	0.654 µM	1.57 µM	0.448 µM	0.507 µM	0.166 µM
CN(C)CC1CCC2=C(C1=O)C(c1ccc(Cl)c(Cl)c1)C1=C(CCC(CN(C)C)C1=O)O2 (configuration not stated)	34.1 µM	3.53 µM	25.2 µM	8.97 µM	8.85 µM	17.5 µM	30.7 µM	29 µM	29.7 µM	5.37 µM	18.2 µM	0.773 µM	12.5 µM	4.54 µM	2.58 µM	4.81 µM	16.6 µM	15.2 µM	16 µM	1.44 µM
N#CSCc1ccc(Cl)c(CSC#N)c1	> 80.3 µM	2.48 µM	> 66.9 µM	49.8 µM	> 41.9 µM	3.81 µM	73 µM	12.2 µM	> 100 µM	19.2 µM	20.7 µM	0.0468 µM	7.25 µM	5.9 µM	0.545 µM	0.133 µM	16.2 µM	0.33 µM	10.5 µM	0.0642 µM
